In US20210205329A1 (The University of North Carolina at Chapel Hill, priority 2018, published 2021):

Key:
TLR4/MD-2 complex = target: T1, TLR4/MD-2 complex (Mus musculus, UniProt Q9QUK6); experiment: TLR4/MD-2 co-immunoprecipitation in LPS-treated RAW264.7 cells; format: cell-based; conditions: 1.0 μM; LPS 1 μg/ml; 24 hrs post-treatment
T1 construct: protein extracts were collected 24 hrs post-treatment and immunoprecipitated with antibody to TLR4; endogenous in cells; host or cells: RAW264.7
T1 sequence (Q9QUK6 26-835): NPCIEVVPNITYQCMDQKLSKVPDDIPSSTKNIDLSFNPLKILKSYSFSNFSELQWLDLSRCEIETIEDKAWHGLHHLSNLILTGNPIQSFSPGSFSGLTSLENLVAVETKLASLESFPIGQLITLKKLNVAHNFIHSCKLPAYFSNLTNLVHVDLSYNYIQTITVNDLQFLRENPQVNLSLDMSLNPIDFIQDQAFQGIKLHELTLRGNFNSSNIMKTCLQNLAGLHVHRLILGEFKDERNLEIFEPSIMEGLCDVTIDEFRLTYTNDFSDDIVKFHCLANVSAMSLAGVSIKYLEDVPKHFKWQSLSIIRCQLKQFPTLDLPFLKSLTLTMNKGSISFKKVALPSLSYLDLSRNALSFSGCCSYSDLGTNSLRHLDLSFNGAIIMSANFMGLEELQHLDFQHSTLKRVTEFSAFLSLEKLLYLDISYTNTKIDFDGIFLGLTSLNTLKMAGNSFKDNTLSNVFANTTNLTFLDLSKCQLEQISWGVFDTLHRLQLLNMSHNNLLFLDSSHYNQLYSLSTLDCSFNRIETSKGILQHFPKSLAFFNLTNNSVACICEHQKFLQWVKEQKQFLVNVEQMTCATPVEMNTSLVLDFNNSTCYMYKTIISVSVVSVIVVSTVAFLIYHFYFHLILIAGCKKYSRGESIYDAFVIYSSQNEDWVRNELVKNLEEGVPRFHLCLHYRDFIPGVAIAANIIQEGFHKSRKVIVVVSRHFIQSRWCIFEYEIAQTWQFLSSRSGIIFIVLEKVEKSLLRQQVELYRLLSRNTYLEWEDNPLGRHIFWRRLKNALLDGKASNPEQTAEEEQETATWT
Procedure: (§1) Co-Immunoprecipitation Assay RAW264.7 cells [treated with LPS (1 μg/ml), 3α,5α-THP (1 μM) or pregnenolone (1 μM)] were exposed to chemical protein crosslinking (Poulopoulos et al, 2009) at 24 hrs post-treatment. Briefly, the cells were incubated (20 min on ice) with 1 mM of the cleavable, membrane-permeable crosslinker DSP (Thermo Fisher Scientific, Cat. #PG82081). Rat VTA homogenates were incubated (20 min on ice) with 200 μM of DSP. The crosslinker was quenched in 1 M Tris buffer (pH 7.5) (to a final concentration of 10-20 mM), and the material was centrifuged at 21,000×g for 15 min. Proteins from the cells were extracted with Pierce IP Lysis Buffer (Thermo Fisher Scientific, Cat. #87787) supplemented with protease and phosphatase inhibitor cocktails (Sigma). Proteins from the VTA were extracted with CelLytic MT (dialyzable mild detergent, bicine and 150 mM NaCl; Sigma Aldrich, St. Louis, Mo., USA, Cat. #C3228) supplemented with protease and phosphatase inhibitor cocktails (Sigma) according to the manufacturers instructions. […]

TLR2/MD-2 interaction = target: T2, TLR2/MD-2 interaction (Mus musculus, UniProt Q9QUN7); experiment: TLR2/MD-2 co-immunoprecipitation (negative control) in LPS-treated RAW264.7 cells; format: cell-based; conditions: 1.0 μM; LPS 1 μg/ml; 24 hrs post-treatment
T2 construct: endogenous in cells; host or cells: RAW264.7
Procedure: as §1

T2 sequence (Q9QUN7 25-784): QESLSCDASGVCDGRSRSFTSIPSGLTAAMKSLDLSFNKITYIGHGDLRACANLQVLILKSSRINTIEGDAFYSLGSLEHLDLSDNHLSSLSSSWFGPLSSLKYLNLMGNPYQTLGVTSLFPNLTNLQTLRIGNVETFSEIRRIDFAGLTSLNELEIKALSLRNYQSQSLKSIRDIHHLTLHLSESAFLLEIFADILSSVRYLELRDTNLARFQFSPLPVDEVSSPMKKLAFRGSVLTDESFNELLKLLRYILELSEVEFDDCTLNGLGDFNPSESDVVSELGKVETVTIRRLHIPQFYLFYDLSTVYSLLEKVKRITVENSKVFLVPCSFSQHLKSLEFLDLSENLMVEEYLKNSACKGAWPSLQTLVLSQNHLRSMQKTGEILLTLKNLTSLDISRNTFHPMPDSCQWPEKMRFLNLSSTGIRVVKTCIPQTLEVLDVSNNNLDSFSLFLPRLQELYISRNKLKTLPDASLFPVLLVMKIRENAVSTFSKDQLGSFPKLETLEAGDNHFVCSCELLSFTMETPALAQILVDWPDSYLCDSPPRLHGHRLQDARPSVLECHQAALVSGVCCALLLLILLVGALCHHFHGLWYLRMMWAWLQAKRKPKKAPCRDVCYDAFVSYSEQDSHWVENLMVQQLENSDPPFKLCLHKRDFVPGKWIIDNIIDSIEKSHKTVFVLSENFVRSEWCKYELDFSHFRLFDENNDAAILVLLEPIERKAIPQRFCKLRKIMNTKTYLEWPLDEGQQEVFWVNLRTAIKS

| SMILES | reduction of MD-2 co-precipitated with TLR4 (TLR4/MD-2 complex) [%] | TLR2/MD-2 co-immunoprecipitation (TLR2/MD-2 interaction) |
| --- | --- | --- |
| CC(=O)[C@H]1CC[C@H]2[C@@H]3CC[C@H]4C[C@H](O)CC[C@]4(C)[C@H]3CC[C@]12C [3α,5α-THP, (3α,5α)3-hydroxypregnan-20-one] | 45.4±6.9 | not altered |
| CC(=O)[C@H]1CC[C@H]2[C@@H]3CC=C4C[C@@H](O)CC[C@]4(C)[C@H]3CC[C@]12C [pregnenolone] | 57.2±7.3 | not altered |
